Patent US20260022142A1, “MACROCYCLIC IMMUNOMODULATORS” (Bristol-Myers Squibb Company, priority 2022, published 2026)
Bridge positions count the residues as written; N and C are the ends. Square brackets hold non-standard residues; d marks the D form. Peptide text beside a SMILES is read from it. * marks the point of attachment. Phe(4-COOH) = N[C@@H](Cc1ccc(C(=O)O)cc1)C(=O)O; Bip = N[C@@H](Cc1ccc(-c2ccccc2)cc1)C(=O)O; Phe(3-Me) = Cc1cccc(C[C@H](N)C(=O)O)c1; 4Pal = N[C@@H](Cc1ccncc1)C(=O)O; Cha = N[C@@H](CC1CCCCC1)C(=O)O; Cit = NC(=O)NCCC[C@H](N)C(=O)O; Carboxymethyl = O=C(O)C*; Orn = NCCC[C@H](N)C(=O)O; Aun = NCCCCCCCCCCC(=O)O; Dab = NCC[C@H](N)C(=O)O; Dap = NC[C@H](N)C(=O)O; AEEA = NCCOCCOCC(=O)O

target: T1, PD-1/PD-L1 interaction (PE-labeled human PD-L1-Ig binding to Jurkat cell line over-expressing human PD-1) (Homo sapiens, UniProt Q15116); assay: Jurkat-PD-1 Cell Binding High-Content Screening Assay (CBA); assay type: cell-based; details: Jurkat cell line over-expressing human PD-1; PE-labeled PD-L1-Ig 20 nM final; read-out: Jurkat hPD1-PDL1 IC50
T1 construct: expressed in transfected cells; host or cells: Jurkat
T1 sequence (Q15116 25-288): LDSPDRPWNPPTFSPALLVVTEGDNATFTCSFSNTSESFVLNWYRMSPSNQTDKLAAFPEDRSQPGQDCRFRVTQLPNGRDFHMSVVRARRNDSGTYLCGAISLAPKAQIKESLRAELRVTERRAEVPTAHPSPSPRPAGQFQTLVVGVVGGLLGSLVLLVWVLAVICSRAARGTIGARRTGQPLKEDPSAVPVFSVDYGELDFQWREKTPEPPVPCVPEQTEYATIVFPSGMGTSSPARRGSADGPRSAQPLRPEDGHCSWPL
Method in brief: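 Read-out is high-content imaging of cell-bound phycoerythrin-tagged PD-L1-Ig on fixed, Hoechst-counterstained Jurkat cells that over-express human PD-1. Compound exposure lasts 2 h at 37° C before the labeled ligand (20 nM final) is added for a further hour.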

IC50 [nM]	Compound
7.6	Cc1cccc(C[C@@H]2NC(=O)[C@H](CC(=O)O)NC(=O)[C@H](Cc3ccc(OCC(=O)O)cc3)NC(=O)[C@H](CN)NC(=O)CSC[C@@H](C(=O)N[C@@H](CCC(=O)O)C(=O)NCCOCCOCC(=O)NCCCCCCCCCCC(=O)O)NC(=O)[C@H]([C@@H](C)O)NC(=O)[C@H](C(C)C)NC(=O)[C@H](CC3CCCCC3)NC(=O)[C@H](CCN)NC(=O)[C@@H](CC(C)C)NC(=O)[C@H](CCCN)NC(=O)[C@H](CCCNC(N)=O)NC(=O)[C@H](Cc3ccc(-c4ccccc4)cc3)NC(=O)[C@H](C(C)C)NC2=O)c1 [Compound 1037] ({CH2CO}-[Dap]Y(Carboxymethyl)D[Phe(3-Me)]V[Bip][Cit][Orn][dL][Dab][Cha]VTCE[AEEA][Aun]-OH; thioether N-14)
20.8	Cc1cccc(C[C@@H]2NC(=O)[C@H](CC(=O)O)NC(=O)[C@H](Cc3ccc(OCC(=O)O)cc3)NC(=O)[C@H](CN)NC(=O)CSC[C@@H](C(=O)NCCOCCOCC(=O)NCCCCCCCCCCC(=O)O)NC(=O)[C@H]([C@@H](C)O)NC(=O)[C@H](C(C)C)NC(=O)[C@H](CC3CCCCC3)NC(=O)[C@H](CCN)NC(=O)[C@@H](CC(C)C)NC(=O)[C@H](CCCN)NC(=O)[C@H](CCCNC(N)=O)NC(=O)[C@H](Cc3ccc(-c4ccccc4)cc3)NC(=O)[C@H](C(C)C)NC2=O)c1 [Compound 1038] ({CH2CO}-[Dap]Y(Carboxymethyl)D[Phe(3-Me)]V[Bip][Cit][Orn][dL][Dab][Cha]VTC[AEEA][Aun]-OH; thioether N-14)
11.9	CC[C@H](C)[C@@H]1NC(=O)[C@H](Cc2ccc(-c3ccccc3)cc2)NC(=O)[C@H](C(C)C)NC(=O)[C@H](Cc2cccc(C)c2)NC(=O)[C@H](CC(=O)O)NC(=O)[C@H](Cc2ccc(C(=O)O)cc2)NC(=O)[C@H](Cc2ccncc2)NC(=O)CSC[C@@H](C(=O)N[C@@H](C)C(=O)N[C@@H](CCC(=O)O)C(=O)NCCCCCCCCCCC(=O)O)NC(=O)[C@H]([C@@H](C)O)NC(=O)[C@H](C(C)C)NC(=O)[C@H](CC2CCCCC2)NC(=O)[C@H](CCN)NC(=O)[C@@H](CC(C)C)NC(=O)[C@H](CCCN)NC1=O [Compound 1039]
52.9	CC[C@H](C)[C@@H]1NC(=O)[C@H](Cc2ccc(-c3ccccc3)cc2)NC(=O)[C@H](C(C)C)NC(=O)[C@H](Cc2cccc(C)c2)NC(=O)[C@H](CC(=O)O)NC(=O)[C@H](Cc2ccc(C(=O)O)cc2)NC(=O)[C@H](Cc2ccncc2)NC(=O)CSC[C@@H](C(=O)N[C@@H](CCC(=O)O)C(=O)NCCCCCCCCCCC(=O)O)NC(=O)[C@H]([C@@H](C)O)NC(=O)[C@H](C(C)C)NC(=O)[C@H](CC2CCCCC2)NC(=O)[C@H](CCN)NC(=O)[C@@H](CC(C)C)NC(=O)[C@H](CCCN)NC1=O [Compound 1040] ({CH2CO}-[4Pal][Phe(4-COOH)]D[Phe(3-Me)]V[Bip]I[Orn][dL][Dab][Cha]VTCE[Aun]-OH; thioether N-14)
15.1	CC[C@H](C)[C@@H]1NC(=O)[C@H](Cc2ccc(-c3ccccc3)cc2)NC(=O)[C@H](C(C)C)NC(=O)[C@H](Cc2cccc(C)c2)NC(=O)[C@H](CC(=O)O)NC(=O)[C@H](Cc2ccc(C(=O)O)cc2)NC(=O)[C@H](Cc2ccncc2)NC(=O)CSC[C@@H](C(=O)N[C@@H](C)C(=O)N[C@@H](CCC(=O)O)C(=O)NCC(=O)NCCCCCCCCCCC(=O)O)NC(=O)[C@H]([C@@H](C)O)NC(=O)[C@H](C(C)C)NC(=O)[C@H](CC2CCCCC2)NC(=O)[C@H](CCN)NC(=O)[C@@H](CC(C)C)NC(=O)[C@H](CCCN)NC1=O [Compound 1041]
15.3	CC[C@H](C)[C@@H]1NC(=O)[C@H](Cc2ccc(-c3ccccc3)cc2)NC(=O)[C@H](C(C)C)NC(=O)[C@H](Cc2cccc(C)c2)NC(=O)[C@H](CC(=O)O)NC(=O)[C@H](Cc2ccc(C(=O)O)cc2)NC(=O)[C@H](Cc2ccncc2)NC(=O)CSC[C@@H](C(=O)N[C@@H](C)C(=O)N[C@@H](CC(=O)O)C(=O)NCC(=O)NCCCCCCCCCCC(=O)O)NC(=O)[C@H]([C@@H](C)O)NC(=O)[C@H](C(C)C)NC(=O)[C@H](CC2CCCCC2)NC(=O)[C@H](CCN)NC(=O)[C@@H](CC(C)C)NC(=O)[C@H](CCCN)NC1=O [Compound 1042]
15.6	CC[C@H](C)[C@@H]1NC(=O)[C@H](Cc2ccc(-c3ccccc3)cc2)NC(=O)[C@H](C(C)C)NC(=O)[C@H](Cc2cccc(C)c2)NC(=O)[C@H](CC(=O)O)NC(=O)[C@H](Cc2ccc(C(=O)O)cc2)NC(=O)[C@H](Cc2ccncc2)NC(=O)CSC[C@@H](C(=O)N[C@@H](CC(=O)O)C(=O)NCCCCCCCCCCC(=O)O)NC(=O)[C@H]([C@@H](C)O)NC(=O)[C@H](C(C)C)NC(=O)[C@H](CC2CCCCC2)NC(=O)[C@H](CCN)NC(=O)[C@@H](CC(C)C)NC(=O)[C@H](CCCN)NC1=O [Compound 1043] ({CH2CO}-[4Pal][Phe(4-COOH)]D[Phe(3-Me)]V[Bip]I[Orn][dL][Dab][Cha]VTCD[Aun]-OH; thioether N-14)
6.1	Cc1cccc(C[C@@H]2NC(=O)[C@H](CC(=O)O)NC(=O)[C@H](Cc3ccc(OCC(=O)O)cc3)NC(=O)[C@H](CN)NC(=O)CSC[C@@H](C(=O)N[C@@H](C)C(=O)N[C@@H](CCC(=O)O)C(=O)NCCCCCCCCCCC(=O)O)NC(=O)[C@H]([C@@H](C)O)NC(=O)[C@H](C(C)C)NC(=O)[C@H](CC3CCCCC3)NC(=O)[C@H](CCN)NC(=O)[C@@H](CC(C)C)NC(=O)[C@H](CCCN)NC(=O)[C@H](CCC(=O)O)NC(=O)[C@H](Cc3ccc(-c4ccccc4)cc3)NC(=O)[C@H](C(C)C)NC2=O)c1 [Compound 1044] ({CH2CO}-[Dap]Y(Carboxymethyl)D[Phe(3-Me)]V[Bip]E[Orn][dL][Dab][Cha]VTCAE[Aun]-OH; thioether N-14)
11	Cc1cccc(C[C@@H]2NC(=O)[C@H](CC(=O)O)NC(=O)[C@H](Cc3ccc(OCC(=O)O)cc3)NC(=O)[C@H](CN)NC(=O)CSC[C@@H](C(=O)N[C@@H](CCC(=O)O)C(=O)NCCCCCCCCCCC(=O)O)NC(=O)[C@H]([C@@H](C)O)NC(=O)[C@H](C(C)C)NC(=O)[C@H](CC3CCCCC3)NC(=O)[C@H](CCN)NC(=O)[C@@H](CC(C)C)NC(=O)[C@H](CCCN)NC(=O)[C@H](CCC(=O)O)NC(=O)[C@H](Cc3ccc(-c4ccccc4)cc3)NC(=O)[C@H](C(C)C)NC2=O)c1 [Compound 1045] ({CH2CO}-[Dap]Y(Carboxymethyl)D[Phe(3-Me)]V[Bip]E[Orn][dL][Dab][Cha]VTCE[Aun]-OH; thioether N-14)
16.2	Cc1cccc(C[C@@H]2NC(=O)[C@H](CC(=O)O)NC(=O)[C@H](Cc3ccc(OCC(=O)O)cc3)NC(=O)[C@H](CN)NC(=O)CSC[C@@H](C(=O)N[C@@H](C)C(=O)N[C@@H](CCC(=O)O)C(=O)NCC(=O)NCCCCCCCCCCC(=O)O)NC(=O)[C@H]([C@@H](C)O)NC(=O)[C@H](C(C)C)NC(=O)[C@H](CC3CCCCC3)NC(=O)[C@H](CCN)NC(=O)[C@@H](CC(C)C)NC(=O)[C@H](CCCN)NC(=O)[C@H](CCC(=O)O)NC(=O)[C@H](Cc3ccc(-c4ccccc4)cc3)NC(=O)[C@H](C(C)C)NC2=O)c1 [Compound 1046] ({CH2CO}-[Dap]Y(Carboxymethyl)D[Phe(3-Me)]V[Bip]E[Orn][dL][Dab][Cha]VTCAEG[Aun]-OH; thioether N-14)
13.2	Cc1cccc(C[C@@H]2NC(=O)[C@H](CC(=O)O)NC(=O)[C@H](Cc3ccc(OCC(=O)O)cc3)NC(=O)[C@H](CN)NC(=O)CSC[C@@H](C(=O)N[C@@H](C)C(=O)N[C@@H](CC(=O)O)C(=O)NCC(=O)NCCCCCCCCCCC(=O)O)NC(=O)[C@H]([C@@H](C)O)NC(=O)[C@H](C(C)C)NC(=O)[C@H](CC3CCCCC3)NC(=O)[C@H](CCN)NC(=O)[C@@H](CC(C)C)NC(=O)[C@H](CCCN)NC(=O)[C@H](CCC(=O)O)NC(=O)[C@H](Cc3ccc(-c4ccccc4)cc3)NC(=O)[C@H](C(C)C)NC2=O)c1 [Compound 1047] ({CH2CO}-[Dap]Y(Carboxymethyl)D[Phe(3-Me)]V[Bip]E[Orn][dL][Dab][Cha]VTCADG[Aun]-OH; thioether N-14)
18.3	Cc1cccc(C[C@@H]2NC(=O)[C@H](CC(=O)O)NC(=O)[C@H](Cc3ccc(OCC(=O)O)cc3)NC(=O)[C@H](CN)NC(=O)CSC[C@@H](C(=O)N[C@@H](CC(=O)O)C(=O)NCCCCCCCCCCC(=O)O)NC(=O)[C@H]([C@@H](C)O)NC(=O)[C@H](C(C)C)NC(=O)[C@H](CC3CCCCC3)NC(=O)[C@H](CCN)NC(=O)[C@@H](CC(C)C)NC(=O)[C@H](CCCN)NC(=O)[C@H](CCC(=O)O)NC(=O)[C@H](Cc3ccc(-c4ccccc4)cc3)NC(=O)[C@H](C(C)C)NC2=O)c1 [Compound 1048] ({CH2CO}-[Dap]Y(Carboxymethyl)D[Phe(3-Me)]V[Bip]E[Orn][dL][Dab][Cha]VTCD[Aun]-OH; thioether N-14)
15	Cc1cccc(C[C@@H]2NC(=O)[C@H](CC(=O)O)NC(=O)[C@H](Cc3ccc(OCC(=O)O)cc3)NC(=O)[C@H](CN)NC(=O)CSC[C@@H](C(=O)N[C@@H](C)C(=O)N[C@@H](CC(=O)O)C(=O)NCCCCCCCCCCC(=O)O)NC(=O)[C@H]([C@@H](C)O)NC(=O)[C@H](C(C)C)NC(=O)[C@H](CC3CCCCC3)NC(=O)[C@H](CCN)NC(=O)[C@@H](CC(C)C)NC(=O)[C@H](CCCN)NC(=O)[C@H](CCC(=O)O)NC(=O)[C@H](Cc3ccc(-c4ccccc4)cc3)NC(=O)[C@H](C(C)C)NC2=O)c1 [Compound 1049] ({CH2CO}-[Dap]Y(Carboxymethyl)D[Phe(3-Me)]V[Bip]E[Orn][dL][Dab][Cha]VTCAD[Aun]-OH; thioether N-14)
20.9	Cc1cccc(C[C@@H]2NC(=O)[C@H](CC(=O)O)NC(=O)[C@H](Cc3ccc(OCC(=O)O)cc3)NC(=O)[C@H](Cc3ccc(OCC(=O)O)cc3)NC(=O)CSC[C@@H](C(=O)NCC(=O)N[C@@H](CCN)C(=O)NCC(=O)NCCCCCCCCCCC(=O)O)NC(=O)[C@H](CO)NC(=O)[C@H](C(C)C)NC(=O)[C@H](CC3CCCCC3)NC(=O)[C@H](CCN)NC(=O)[C@@H](CC(C)C)NC(=O)[C@H](CCCN)NC(=O)[C@H](C(C)C)NC(=O)[C@H](Cc3ccc(-c4ccccc4)cc3)NC(=O)[C@H](CC(C)C)NC2=O)c1 [Compound 1050] ({CH2CO}-Y(Carboxymethyl)Y(Carboxymethyl)D[Phe(3-Me)]L[Bip]V[Orn][dL][Dab][Cha]VSCG[Dab]G[Aun]-OH; thioether N-14)
